Experimental data reported in paper PMC11360180, “Enhancement of Antimicrobial Function by L/D-Lysine Substitution on a Novel Broad-Spectrum Antimicrobial Peptide, Phylloseptin-TO2: A Structure-Related Activity Research Study” (Pharmaceutics, 2024).
Where no end group is shown, it is not given here.

Columns and labels:
S. aureus (ATCC 6538) = assay type: cell-based, Staphylococcus aureus; conditions: ATCC 6538, 24 h
Text: (§1) Seven microorganism strains were used to preliminarily evaluate the antimicrobial activity of PSTO2 and its analogues, including Staphylococcus aureus (S. aureus) (ATCC® 6538), methicillin-resistant Staphylococcus aureus (MRSA) (NCTC® 12493), Enterococcus faecalis (E. faecalis) (NCTC® 12697), E. coli (ATCC® 8739), Klebsiella pneumonia (K. pneumonia) (ATCC® 43816), Pseudomonas aeruginosa (P. aeruginosa) (ATCC® CRM 9027), Acinetobacter baumanni (A. baumanni) (BAA® 747), and Candida albicans (C. albicans) (ATCC® 10231). In this study, the strains were cultured in Mueller–Hinton broth (MHB), nutrient broth (NB), and yeast–peptone–dextrose broth (YPD-B) correspondingly at 37 °C, with shaking at 120 rpm. Each peptide was dissolved from 128 μM to 1 μM and mixed with the bacterium at 5 × 10^5 CFU/mL. In this process, bacteria with culture medium were used as the growth control group; PBS was set up as the vehicle control group; sterile culture medium was used as the blank control group; and Norfloxacin at a concentration of 2 mg/mL and amphotericin B at a concentration of 1 mg/mL were set up as the positive control group for bacteria and fungi, respectively.
(§2) After being incubated for 24 h, a Synergy HT plate reader (Bio-Tek, Shoreline, WA, USA) was used to detect the absorbance of each well in the 96-well plate at λ = 550 nm. The concentration at which no visible turbidity could be recorded was the MIC value. Beginning from the MIC value, 10 µL of solution in each clear well was dropped on the sterile agar plates. The plate was checked the next day for colony formation, and the lowest concentration at which no colony growing was recorded as an MBC value.

A. baumannii (BAA 747) = assay type: cell-based, Acinetobacter baumanni; conditions: BAA 747, 24 h
Text: as §1, §2

[1] = test system: K. pneumonia (ATCC 43816); assay type: cell-based, Klebsiella pneumonia; conditions: ATCC 43816, 24 h
Text: as §1, §2

[2] = test system: P. aeruginosa (ATCC 9027); assay type: cell-based, Pseudomonas aeruginosa; conditions: ATCC 9027, 24 h
Text: as §1, §2

C. albicans = assay type: cell-based, Candida albicans; conditions: 24 h
Text: as §1, §2

[3] = test system: MRSA (ATCC 12493) biofilm; assay type: cell-based, methicillin-resistant Staphylococcus aureus; conditions: ATCC 12493, 24 h
Method: To test the anti-biofilm ability of PSTO2 and its analogues, three types of microorganisms (S. aureus ATCC® 6538, E. coli ATCC® 8739, and MRSA NCTC® 12493) were chosen. Tryptic soy broth (TSB) and Lysogeny broth (LB) were used to culture microorganisms. The peptide was dissolved in an autoclaved PBS solution and diluted into concentrations ranging from 51,200 µM to 100 µM. One µL of peptide solution of each concentration was added into a 96-well plate with 100 µL bacterium at 5 × 10^5 CFU/mL. The plate was incubated at 37 °C for 24 h, with shaking at 200 rpm. After overnight incubation, the planktonic bacteria were washed up. Then, 100 µL of methanol was used to fix the biofilms onto the bottom, and 100 µL of 0.1% crystal violet solution (Sigma-Aldrich, Gillingham, UK) was added to each well to stain the biofilms. After drying, 160 µL of acetic acid (30% in deionised water, Sigma-Aldrich, UK) was added to each well to dissolve the shaded parts. The absorbance was detected with the Synergy HT plate reader at λ = 595 nm.
For the MBEC assay, 100 µL of the bacterium of 5 × 10^5 CFU/mL was transferred into an empty 96-well plate, and the plate was incubated at 37 °C for 24 h to obtain the biofilms primarily. Then, the peptide solution from 512 µM to 1 µM was transferred into a corresponding well, followed by 24 h incubation at 37 °C, with shaking at 200 rpm. After this, the plate was handled using the identical method to the plate in the MBIC assay, and the absorbance of each well was detected with the Synergy HT plate reader at λ = 595 nm. The minimum concentration at which the peptide can eradicate the existing biofilm was recorded as the MBEC value.

MCF-7 = assay type: cell-based, human; conditions: 24 h
Method: (§3) The percentage of cancer cell survival after being treated with peptides was assessed with 3-(4,5-dimethylthiazol-2-yl-)-2,5-diphenyltetrazolium bromide (MTT). The principle is the reduction process of the yellow tetrazolium to DMSO-soluble formazan crystals caused by the metabolic capability of living cells. All the cancerous and normal cells were obtained from the American Type Culture Collection (Rockville, VA, USA). Human lung cancer NCI-H838 and NCI-H460 were cultured in Roswell Park Memorial Institute (RPMI)-1640 medium (Gibco, Paisley, UK) and mixed with 10% (v/v) fetal bovine serum (FBS) (Gibco, Campinas, Brazil) and 1% penicillin–streptomycin (Gibco, Grand Island, NY, USA) 89/10/1 v/v/v). U251MG and MCF-7 were cultured in Dulbecco’s Modified Eagle medium (DMEM) (Gibco, Paisley, UK) and mixed with 10% FBS and 1% penicillin–streptomycin. HCT 116 was cultured in McCoy’s 5A (modified) medium (Gibco, Paisley, UK) and mixed with 10% FBS and 1% penicillin–streptomycin. MRC-5 and HaCat were cultured in Minimum Essential Medium (MEM) (Gibco, Paisley, UK) and mixed with 10% FBS and 1% penicillin–streptomycin. Cells were cultured and seeded in a 96-well plate at a density of 8000 cells/well with the corresponding medium and incubated for 24 h at 37 °C with 5% CO2. After 24 h of incubation, the cells were starved with a serum-free medium for 4 h at 37 °C. Then, the cells were incubated with different concentrations of peptide solution in a serum-free medium from 1 nM to 100 µM at 37 °C for 24 h. Meanwhile, triton X-100 (0.1%) (Sigma-Aldrich, St. Louis, MO, USA) and PBS were chosen as positive and negative controls. After 10 µL of MTT (5 mg/mL) was added to each well away from light and incubated at 37 °C for 2 h, the formazan generated by mitochondria was dissolved with DMSO. The absorbance was detected at a wavelength of 570 nm by a Synergy HT plate reader (Bio-Tek, Shoreline, WA, USA).

NCI-H460 = assay type: cell-based, human; conditions: 24 h
Method: as §3

NCI-H838 = assay type: cell-based, human; conditions: 24 h
Method: as §3

U251MG = assay type: cell-based, human; conditions: 24 h
Method: as §3

HaCat = assay type: cell-based; conditions: 24 h
Method: as §3

MRC-5 = assay type: cell-based; conditions: 24 h
Method: as §3

horse red blood cells = assay type: cell-based
Method: To assess the haemolytic activity of PSTO2 and its analogues, 2% fresh defibrinated horse red blood cells (TCS Biosciences Ltd., Buckingham, UK) were acquired after being washed and resuspended in sterile PBS. Each peptide was dissolved in PBS to prepare solutions with concentrations ranging from 2 µM to 1024 µM. Subsequently, 100 µL of each peptide solution was mixed with 100 µL of the red blood cell suspension. The red blood cells treated with 1% triton X-100 and sterile PBS in equivalent volumes were set up as the positive and negative control groups, respectively. Then, all the samples were incubated at 37 °C for 2 h. Thereafter, the samples were centrifuged at 900× g for 10 min. Finally, 100 µL of supernatant of each sample was transferred into a 96-well plate, and the absorbance was recorded by a Synergy HT plate reader (Bio-Tek, Shoreline, WA, USA) at a wavelength of 570. The following equation was used to calculate haemolysis activity:Haemolysis activity = (Sample absorbance − Ab)/(Ap − Ab) × 100% where Ab refers to the mean value of absorbance of the negative control (incubated with PBS only), and Ap refers to the mean absorbance value of the positive control (incubated with triton X-100).

In the case of “FLSLIPHAISAVSALAKHL-NH2 [PSTO2, phylloseptin-TO2]”, the MBC (S. aureus (ATCC 6538)) is reported as 4 µM, the MBC (A. baumannii (BAA 747)) is reported as over 128 µM and the MIC (A. baumannii (BAA 747)) is reported as over 128 µM. The MBC [1] was 128 µM, the MIC [1] was 64 µM and the MBC [2] was over 128 µM. The MIC [2] was over 128 µM, the MBC (C. albicans) was 128 µM and the MIC (C. albicans) was 32 µM. It also gave an MBIC [3] of 4 µM, an IC50 (MCF-7) of 23.1 µM and an IC50 (NCI-H460) of 78.3 µM. It also gave an IC50 (NCI-H838) of 85.8 µM, an IC50 (U251MG) of 84 µM and an IC50 (HaCat) of 70.58 µM. For the same substance, the IC50 (MRC-5) was 73.22 µM and the HC10 (horse red blood cells) was 21.78.
